Test results as given in patent US6521443B1, “Growth medium for lactobacilli containing amino acids, nucleosides and iron” (Nestec S.A., priority 1999, dated 2003).

Legend:
Assay type in all cases: cell-based
[1] = system: Lactobacilli; assay: growth of Lactobacilli in supplemented milk (general trials); conditions: addition of ribonucleosides to milk
Method: In order to find the identity of other stimulatory substances, several trials were performed with ribonucleotide precursors, that is free bases such as adenine, guanine, cytosine, thymine, and uracil, ribonucleosides such as adenosine, cytidine, uridine, and guanosine, and 2′-deoxyribonucleosides such as deoxyadenosine, deoxyguanosine, deoxycytidine, deoxyuridine and thymidine. These compounds were supplemented to milk as concentrated alkaline or neutral solutions at different concentrations.
This finding confirmed the hypothesis that the low level of purines in milk negatively affects bacterial growth therein. […] Without being bound by theory, it is believed that the high content of orotic acid allows the synthesis of pyrimidine bases. No significant differences in pH-values were detected by the addition of free bases and deoxyribonucleosides between aerobic and anaerobic conditions. […] The positive effect was observed particularly with the addition of ribonucleosides in anaerobic environment.
(§1) The growth results were estimated by cell counts and a final pH measurement performed after 24 hours incubation at 37 ° C. Rapid Analysis of Bacterial Impedance Technique (RABIT) (Don Whitley Scientific, West Yorkshire, UK) was used to perform trials with skim and whole UHT milk for 24 hours at 37° C.

[2] = system: L. johnsonii ATCC 33200; assay: omission technique with RABIT in skim milk; conditions: skim milk with four ribonucleosides and ferrous sulphate
Method: as §1
In order to determine those amino acids having an essential role for L. johnsonii growth in milk, the “omission technique” (Reiter, B. & Oram, J. D, I. Dairy Res, 29 (1962), 63-77) was applied by culturing the strain ATCC 33200^T in skim milk, adding four ribonucleosides and ferrous sulphate (positive control), supplemented with the mixture of 19 amino acids described above deprived of one particular component at each given time.

[3] = system: L. johnsonii; assay: growth assay in milk, L. johnsonii (strain not specified)
Method: Skim milk (Difco) 10% w/v in sterile water and whole fat UHT milk (Parmalat, Italy) were used to perform the growth assays. The milk tubes were 1% inoculated from an overnight MRS culture washed twice and finally re-suspended with the same amount of sterile distilled water in order to avoid nutrient transfer via the medium.
Milk tubes were incubated aerobically in a thermostat (Sorvall Heraeus) at 37° C. for 24 hours, or anaerobically in an anaerobic incubator (Model 1024, Forma Scientific, USA) at 37° C. for 24 hours.
The chemicals supplemented to the milk were added as concentrated solutions prepared according to standard methods, i.e., the Merck Index instructions. The final pH of milk was adjusted to 6.8 after supplementation using an aqueous 4N sodium hydroxide solution. The initial pH of the 10% skim milk solution and whole fat UHT milk was 6.8 and 6.7, respectively.
as §1
A final pH of 4.1 was measured after amino acids supplementation, but the cell count was still not satisfactory. The cell count when a 10% skim milk with 19 amino acids added increased from 1.0×10^7 CFU/ml to 40×10^7 CFU/ml, which is a factor of 40 increase but is less than the factor of 300 increase observed with 10% skim milk and yeast extract.

Nc1ncnc2c1ncn2[C@@H]1O[C@H](CO)[C@@H](O)[C@H]1O [adenosine]
improvement of growth conditions in milk [1]: strongest effect

C[C@H](N)C(=O)O [alanine]
effect of amino acid on growth (RABIT, omission technique) [2]: excellent results

N[C@@H](CS)C(=O)O [cysteine]
pH in the presence of cysteine ([3]; aerobic conditions): 3.9
pH in absence of cysteine ([3]; anaerobic conditions): 4.3
effect of amino acid on growth (RABIT, omission technique) [2]: excellent results

Nc1nc2c(ncn2[C@@H]2O[C@H](CO)[C@@H](O)[C@H]2O)c(=O)[nH]1 [guanosine]
improvement of growth conditions in milk [1]: strongest effect

CC[C@H](C)[C@H](N)C(=O)O [isoleucine]
effect of amino acid on growth (RABIT, omission technique) [2]: excellent results

N[C@@H](CO)C(=O)O [serine]
effect of amino acid on growth (RABIT, omission technique) [2]: excellent results

O=C(O)CS [thioglycollic acid]
cell counts ([3]; aerobic conditions, final concentration 0.5% v/v, replacing cysteine): more than 100×10^7 CFU/ml
